Literature values in patent US20160143911A1, “STABLE AND WATER SOLUBLE PHARMACEUTICAL COMPOSITIONS COMPRISING PEMETREXED” (SYNTHON B.V., priority 2013, published 2016).

Conditions: free diacid form

SMILES: Nc1nc2[nH]cc(CCc3ccc(C(=O)N[C@@H](CCC(=O)O)C(=O)O)cc3)c2c(=O)[nH]1 [pemetrexed diacid, N-[4-[2-(2-amino-4,7-dihydro-4-oxo-1H-pyrrolo [2,3-d]pyrimidin-5-yl)ethyl]benzoyl]-L-glutamic acid]
- Solubility in water: only sparingly soluble in water
